In patent US10246496B2, “Potassium channel blockers and use thereof in the treatment of autoimmune diseases” (MONASH UNIVERSITY, priority 2014, dated 2019):

Assays:
[1] = biological target: T1, mKv1.3 (Mus musculus, UniProt P16390); assay: Whole-cell patch clamp electrophysiology, Kv1.3 channel currents; format: cell-based
T1 construct: expressed in transfected cells
Source text: Data are presented as mean±s.e.m.
Electrophysiological analysis—Cells were studied using the whole-cell configuration of a standard patch-clamp technique at RT. The bath solution contained (in mM): 160 NaCl, 4.5 KCl, 2 CaCl2, 1 MgCl2, 10 HEPES, pH 7.2, 300 mOsm. […] Kv currents were elicited by repeated 200 ms depolarising pulses from a holding potential of −80 mV to 40 mV, applied every 30 seconds. The Port-a-Patch patch clamp system (Nanion Technologies GmbH, Munich, Germany) and NPC-1 chips with 2-3.5 MΩ resistance were also utilised in conjunction. IC50 values of Kv blockers were calculated by fitting the Hill equation to the reduction of peak current measured at 40 mV.
Thus, both analogues have reduced affinity to K^+ channels and show a relatively low level of selectivity for Kv1.3 over Kv1.1. The implication is that neither Ser-3 nor Glu-3 was able to greatly discriminate between Pro377 in Kv1.3 and the corresponding Ala in Kv1.1.

[2] = biological target: Kv1.3 (Mus musculus, UniProt P16390); conditions: literature values (Kalman 1998; Pennington 2009); spread = s.e.m.; read-out: Binding affinities (IC50) Kv1.3; cited from earlier work
Chain of Kv1.3 (P16390 whole entry): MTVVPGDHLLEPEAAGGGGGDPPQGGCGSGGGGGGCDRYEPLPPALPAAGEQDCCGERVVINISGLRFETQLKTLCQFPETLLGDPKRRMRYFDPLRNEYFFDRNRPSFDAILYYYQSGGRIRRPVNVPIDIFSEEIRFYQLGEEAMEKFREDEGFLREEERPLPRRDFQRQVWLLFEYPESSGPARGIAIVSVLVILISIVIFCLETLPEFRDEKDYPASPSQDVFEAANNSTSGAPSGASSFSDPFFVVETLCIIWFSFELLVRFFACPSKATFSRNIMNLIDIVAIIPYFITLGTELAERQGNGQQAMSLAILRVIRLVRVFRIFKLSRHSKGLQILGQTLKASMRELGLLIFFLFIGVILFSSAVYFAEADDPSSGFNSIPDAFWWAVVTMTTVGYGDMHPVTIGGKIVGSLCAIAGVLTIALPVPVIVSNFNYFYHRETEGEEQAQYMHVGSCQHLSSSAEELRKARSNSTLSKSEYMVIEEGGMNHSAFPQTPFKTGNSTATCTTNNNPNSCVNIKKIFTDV

T1 sequence (P16390 whole entry): as above

| Compound | IC50 [1] | higher affinity for Kv1.3 as compared to [ESSS]ShK ([1]; relative to [ESSS]ShK) | IC50 [2] | higher affinity for Kv1.3 than ShK-192 ([1]; relative to ShK-192) |
| --- | --- | --- | --- | --- |
| CC[C@H](C)[C@@H]1NC(=O)[C@@H](NC(=O)[C@H](CO)NC(=O)[C@H](CCCNC(=N)N)NC(=O)[C@H](CO)NC(=O)[C@H](CO)NC(=O)[C@H](CCC(=O)O)NC(=O)[C@@H](N)CCC(=O)O)CSSC[C@@H](C(N)=O)NC(=O)[C@H]([C@@H](C)O)NC(=O)CNC(=O)[C@@H]2CSSC[C@@H]3NC(=O)[C@H](CCC(N)=O)NC(=O)[C@H](Cc4ccccc4)NC(=O)[C@H](C)NC(=O)[C@H]([C@@H](C)O)NC(=O)[C@H](CSSC[C@H](NC(=O)[C@H](Cc4ccccc4)NC(=O)[C@H](CO)NC(=O)[C@H](CC(C)C)NC(=O)[C@H](CCCNC(=N)N)NC(=O)[C@H](Cc4ccc(O)cc4)NC(=O)[C@H](CCCCN)NC(=O)[C@H](CCSC)NC(=O)[C@H](CO)NC(=O)[C@H](Cc4c[nH]cn4)NC(=O)[C@H](CCCCN)NC3=O)C(=O)N[C@@H](CCCNC(=N)N)C(=O)N[C@@H](CCCCN)C(=O)N[C@@H]([C@@H](C)O)C(=O)N2)NC(=O)[C@H](CCCNC(=N)N)NC(=O)[C@H](CO)NC(=O)[C@H](CCCCN)NC(=O)[C@@H]2CCCN2C(=O)[C@H]([C@@H](C)CC)NC(=O)[C@H]([C@@H](C)O)NC(=O)[C@H](CC(=O)O)NC1=O [[EESS]ShK] | 404 ± 58 pM | 1.6 fold |  |  |
| RSCIDTIPKSRCTAFQCKHSMKYRLSFCRKTCGTC [ShK] |  |  | 11 pM |  |
| CC[C@H](C)[C@@H]1NC(=O)[C@@H](NC(=O)[C@H](CO)NC(=O)[C@H](CCCNC(=N)N)NC(=O)[C@H](CO)NC(=O)[C@H](CO)NC(=O)[C@H](Cc2c[nH]c3ccccc23)NC(=O)[C@@H](N)CCC(=O)O)CSSC[C@@H](C(=O)O)NC(=O)[C@H]([C@@H](C)O)NC(=O)CNC(=O)[C@@H]2CSSC[C@@H]3NC(=O)[C@H](CCC(N)=O)NC(=O)[C@H](Cc4ccccc4)NC(=O)[C@H](C)NC(=O)[C@H]([C@@H](C)O)NC(=O)[C@H](CSSC[C@H](NC(=O)[C@H](Cc4ccccc4)NC(=O)[C@H](CO)NC(=O)[C@H](CC(C)C)NC(=O)[C@H](CCCNC(=N)N)NC(=O)[C@H](Cc4ccc(O)cc4)NC(=O)[C@H](CCCCN)NC(=O)[C@H](CCSC)NC(=O)[C@H](CO)NC(=O)[C@H](Cc4c[nH]cn4)NC(=O)[C@H](CCCCN)NC3=O)C(=O)N[C@@H](CCCNC(=N)N)C(=O)N[C@@H](CCCCN)C(=O)N[C@@H]([C@@H](C)O)C(=O)N2)NC(=O)[C@H](CCCNC(=N)N)NC(=O)[C@H](CO)NC(=O)[C@H](CCCCN)NC(=O)[C@@H]2CCCN2C(=O)[C@H]([C@@H](C)CC)NC(=O)[C@H]([C@@H](C)O)NC(=O)[C@H](CC(=O)O)NC1=O [[EWSS]ShK] | 33 ± 7 pM |  |  | 4 fold |
